The experiment concerns mean arterial pressure and heart rate. Description: In vivo blood pressure and heart rate after intravenous dosing in normotensive rats. The arrangement: species or system Sprague-Dawley rats. Here is the method:
Male Sprague-Dawley rats obtained from Charles River Laboratories, Wilmington, Mass., and weighing 276-300 g, were group housed at 22° C. and kept on 12 hour light/dark cycle. Food and water were provided ad lib. Animals were anesthetized with sodium pentobarbital (65 mg/kg) and under sterile conditions a one-inch incision was made in the fold of the left leg to expose the femoral blood vessels. Two lengths of PE-50 tubing filled with 10% heparin were inserted into the left femoral artery and left femoral vein for measurement of blood pressure and for drug delivery, respectively. The tubings were tunneled under the skin and exposed through the mid-scapular region. Animals were allowed at least 24 hours recovery prior to experiments. A force transducer (Spectramed Model P23XL, Grass Instruments, Quincy, Mass., USA), and tachograph (Model 7P44D, Grass Instruments) was used for recording of systolic and diastolic pressures and heart rate from the femoral artery catheter. Patency of catheters was verified by flushing with either saline or 10% heparin. A dose of either 30, 100, 500, 800 or 1000 nM/kg ([…]) of NPY27-36 (D-Tyr^27,36, D-Thr^32) (prepared as described in Example 1 above), or saline was delivered to the animal via the catheter in the left femoral vein. Changes in systolic and diastolic pressures and heart rater were recorded from the catheter in the left femoral artery over a 10 minute time interval.

Where [1] appears, read: i.v., 30-1000 nM/kg, normotensive Sprague-Dawley rats, recorded over 10 min.

Square brackets hold non-standard residues; d marks the D form. Ends that are not written are not given here.

As to “D-Tyr-Ile-Asn-Leu-Ile-D-Thr-Arg-Gln-Arg-D-Tyr-NH2 ([dY]INLI[dT]RQR[dY]-NH2; N-terminus assumed; SMILES CC[C@H](C)[C@H](NC(=O)[C@H](N)Cc1ccc(O)cc1)C(=O)N[C@@H](CC(N)=O)C(=O)N[C@@H](CC(C)C)C(=O)N[C@H](C(=O)N[C@@H](C(=O)N[C@@H](CCCNC(=N)N)C(=O)N[C@@H](CCC(N)=O)C(=O)N[C@@H](CCCNC(=N)N)C(=O)N[C@H](Cc1ccc(O)cc1)C(N)=O)[C@H](C)O)[C@@H](C)CC) [NPY27-36 (D-Tyr^27,36, D-Thr^32)]”, the “changes in pressure and heart rate vs saline treatment” value (i.v. doses of 30 and 100 nM/kg) was “failed to produce changes that were significantly different from saline treatment”. Moreover, under “i.v. doses of 500, 800 and 1000 nM/kg”, the “mean arterial pressure vs saline-treated controls” value is given as “significantly different decreases in mean arterial pressure”. The “heart rate vs saline controls” value (i.v. doses of 500 and 1000 nM/kg) is reported as “significantly different increases in heart rate”. Under setting [1], the “heart rate, dose-response” value is “increase in heart rate” and the “mean arterial pressure, dose-response” value is given as “dose-dependent decrease in mean arterial pressure”.

For the origin of these results see patent US6075009A, “Neuropeptide Y analogues, compositions and methods of lowering blood pressure” (East Carolina University, priority 1995, dated 2000).
